Consider 2 compounds from patent US20110104177A1, “HISTONE DEACETYLASE INHIBITORS, COMBINATION THERAPIES AND METHODS OF USE” (THE JOHNS HOPKINS UNIVERSITY, priority 2006, published 2011).

Usually pIC50 stands for −log10 of the IC50, conventionally taken in molar units. A low value points to a large IC50.

The target of one assay is T1, SIRT1 (Homo sapiens, UniProt Q96EB6).
T1 sequence (Q96EB6 1-747): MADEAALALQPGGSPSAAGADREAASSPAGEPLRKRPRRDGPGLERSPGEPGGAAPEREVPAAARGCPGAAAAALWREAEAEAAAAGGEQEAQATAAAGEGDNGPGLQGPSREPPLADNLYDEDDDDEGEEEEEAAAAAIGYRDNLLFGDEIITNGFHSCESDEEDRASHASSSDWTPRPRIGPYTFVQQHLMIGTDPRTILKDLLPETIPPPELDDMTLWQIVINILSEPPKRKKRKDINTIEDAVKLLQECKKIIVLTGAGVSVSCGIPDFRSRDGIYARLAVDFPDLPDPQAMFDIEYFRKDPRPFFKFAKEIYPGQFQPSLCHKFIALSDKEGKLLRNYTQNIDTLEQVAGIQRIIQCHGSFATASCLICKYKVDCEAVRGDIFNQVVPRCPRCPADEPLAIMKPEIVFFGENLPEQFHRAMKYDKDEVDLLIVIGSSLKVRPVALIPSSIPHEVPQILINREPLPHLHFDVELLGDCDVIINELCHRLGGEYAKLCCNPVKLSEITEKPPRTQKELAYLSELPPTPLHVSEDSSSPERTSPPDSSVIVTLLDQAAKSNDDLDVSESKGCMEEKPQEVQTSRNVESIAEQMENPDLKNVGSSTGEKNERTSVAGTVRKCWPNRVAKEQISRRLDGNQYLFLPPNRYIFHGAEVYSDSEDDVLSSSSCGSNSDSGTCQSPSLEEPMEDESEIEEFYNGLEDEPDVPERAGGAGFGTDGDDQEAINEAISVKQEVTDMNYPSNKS
Put plainly: SIRT1 p53-382 IC50 assay. It is filed as biochemical.

The subject of assay [1] is β-catenin-responsive TCF reporter (Wnt pathway) in RKO cells. The experiment in a line: β-catenin-responsive TCF reporter assay. It is filed as cell-based, human. As to conditions: 700 μM SPT for 24 hours. As for the experimental part:
The panels of FIG. 6. […] Error bars indicate standard deviation from the average of three experiments. FIG. 6(B) provides the results obtained from experiments in which RKO cells were transfected with 500 ng of pGL3-OT, a TCF-LEF-responsive reporter, or pGL3-OF, a negative control with a mutated TCF-LEF binding site in combination with 10 ng of pRL-CMV vector. Twenty-four hours post-transfection, cells were treated with either vehicle (DMSO) control or with 700 μM SPT for 24 hours. Firefly luciferase activity was measured and normalized to the Renilla luciferase activities. The experiments shown in FIG. 6(C) were performed as described in FIG. 6(A), in which pooled populations of MDA-MB-231 cells stably expressing RNAi-2 or RNAi-3 were harvested, protein concentrations were determined, and Western blot analysis was performed. An antibody that specifically recognizes the unphosphorylated (active) form of β-catenin was used, and on the same blot, β-actin was probed to ensure equal loading. […]
Reporter assays were performed as described previously using the β-catenin-responsive TCF reporter and the cyclin D1 reporter. […] According to the manufacturer's instructions, Firefly luciferase activity was measured via a luminometer (BD Biosciences) and normalized to the Renilla luciferase activities by using the Dual Luciferase Reporter System (Promega, Madison, Wis., United States).
(In general: Reporter assays use an easily measured gene product as a stand-in for the process of interest.)

For assay [2], the system named is SFRP1 and SFRP2 genes in MCF7 cells. The experiment in a line: RT-PCR re-expression of silenced tumor suppressor genes in MCF7 cells. It is filed as cell-based, human. As to conditions: sirtuin inhibitors, data not shown. On the procedure: (§1) Cell culture and retroviral infection. MDA-MB-231, MCF7, HCT116, SW480 RKO, and Phoenix cells (ATCC, Rockville, Md., United States) were cultured in Dulbecco's modified Eagle's medium supplemented with 10% fetal bovine serum and 1% penicillin/streptomycin (Invitrogen, Carlsbad, Calif., United States). Retroviral infection was performed using either single or multiple rounds of infection. Briefly, Phoenix cells were transfected with either pBabe, pBabe-SIRT1H363Y, pSUPERretro, pSUPERretro-SIRT1-RNAi-1-3 (NM_012238 positions 410, 589, and 1091; Oligo Engine, Seattle, Wash., United States) using Lipofectamine 2000 (Invitrogen). After 48 h of transfection, the medium containing retrovirus was collected, filtered, and supplemented with Polybrene prior to infection of target cells (MDA-MB-231, MCF7, or HCT116). Infected cells were either harvested 24-48 hours later or subjected to selection with 2-3 μg/ml puromycin for a week prior to harvest and analysis.
(§2) RNA and protein preparation and analysis. Total RNA was extracted (Invitrogen) according to the manufacturer's instructions and subjected to reverse transcription followed by both quantitative real-time and semi-quantitative polymerase chain reaction. For quantitative real-time analyses, the QuantiTect SYBR Green PCR kit (Qiagen, Valencia, Calif., United States) was used and the amplification conditions consisted of an initial 10-minutes denaturation step at 95° C., followed by 40 cycles of denaturation at 95° C. for 15 s and annealing and extension for 30 seconds and 60 seconds, respectively. A BioRad iCycler was used (BioRad, Hercules, Calif., United States), and for quantitation the comparative cycle threshold (Ct) method was used, normalizing the Ct values for the indicated gene to the Ct values of GAPDH relative to a control sample. For conventional PCR, at least two independent sets of intron-spanning primers were used for the analysis of multiple genes, such as CRBP1, (NM_002899), E-cadherin, (L34545), SFRP1, (BC036503), SFRP2, (BC008666), and Gata-4 (L34357). For Western blots, cells stably expressing RNAi constructs were harvested in 50 mM Tris-HCl, 1% NP-40, 0.25% sodium deoxycholate, 150 mM NaCl, 50 mM sodium fluoride, 1 mM dithiothreitol, 1 mM AEBSF, 1× Complete protease inhibitor cocktail (Roche, Basel, Switzerland). Protein concentrations were measured by BCA (Pierce Biotechnology, Rockford, Ill., United States). […] On the same blot, β-actin (Sigma, St. Louis, Mo., United States) was probed to ensure equal loading.

Assay [3] deals with cyclin-D1 promoter reporter in RKO cells. Put plainly: β-catenin-responsive cyclin-D1 promoter reporter assay. It is filed as cell-based, human. Particulars: SPT treatment, data not shown. As for the experimental part: Reporter assays were performed as described previously using the β-catenin-responsive TCF reporter and the cyclin D1 reporter. Briefly, prior to transfection, RKO cells were plated in six-well tissue culture dishes and grown until they reached 80%-90% confluence. Cells were transfected with 500 ng of pGL3-OT, a TCF-LEF-responsive reporter, or pGL3-OF, a negative control with a mutated TCF-LEF binding site in combination with 10 ng of pRL-CMV vector. Twenty-four hours post-transfection, cells were treated with either vehicle (DMSO) control or with 700 μM SPT for 24 hours. According to the manufacturer's instructions, Firefly luciferase activity was measured via a luminometer (BD Biosciences) and normalized to the Renilla luciferase activities by using the Dual Luciferase Reporter System (Promega, Madison, Wis., United States).

The test system of assay [4] is SFRP1, SFRP2, E-cadherin, CRBP1 genes in MDA-MB-231 cells. Put plainly: RT-PCR re-expression of silenced tumor suppressor genes in MDA-MB-231 cells. It is filed as cell-based, human. On the procedure:
The panels of FIG. 2 are as follows. […] MDA-MB-231 cells were treated with 15 mM NIA or 300 μM SPT for 21 hours, RNA was isolated, and RT-PCR was performed with intron-spanning primers specific for the indicated genes. Control samples in which no reverse transcriptase was added were analyzed separately, and all were negative for amplification of the indicated genes. […] MDA-MB-231 cells were treated with either 50 nM Aza (+), 100 μM SPT (+) or with both Aza and SPT (++), and 34 hours later, RT-PCR was performed for the indicated genes as described in FIG. 2(A). […] MDA-MB-231 cells were treated with either 0, 50, 100, or 120 μM SPT alone for 34 hours, or the treatment was followed by treatment with 300 nM TSA for 3 hours prior to RNA isolation and RT-PCR analysis. […] MDA-MB-231 cells were infected with low titers of virus for shRNA specific for SIRT1. Aza (100 nM) was added 24 hours prior to RNA isolation, and RT-PCR analysis was performed for the genes SFRP 1, SFRP2, and GAPDH as described in FIG. 2(A). […] As shown in the left panel, MDA-MB-231 cells were infected with a control (vec) or mutant SIRT1 virus (HY), and RT-PCR was performed as described in FIG. 2(A). MDA-MB-231 cells were infected with low titers of pBabe or pBabe-SIRT1H363Y retrovirus and subsequently treated with 100 nM Aza for 24 hours or with 300 nM TSA for 3 hours prior to harvest, and RT-PCR was performed.
as §1, §2

Molecules are shown by their SMILES. pIC50: −log10 of the molar value.

Regarding `O=C(NO)C1CCCc2c1[nH]c1ccc(Cl)cc21` (stereo not drawn) [Compound 7, 6-Chloro-2,3,4,9-tetrahydro-1H-carbazole-1-carboxylic acid hydroxyamide], the pIC50 on SIRT1 was under 5.00.

Consider `O=C1CCc2c(ccc3ccccc23)O1` [SPT, splitomicin, reference compound], for which, in assay [1], the “reduction in the activation of a β-catenin-responsive TCF reporter construct” value amounted to 50%. The “re-expression of epigenetically silenced, hypermethylated TSGs” value in assay [2] is reported as “could cause the re-expression”. In addition, in assay [3], the “reduction in the activation of a β-catenin-responsive cyclin-D1 promoter reporter construct” value is 50%. In assay [4] (Aza (50 nM) or SPT (50 μM) alone), the “re-expression of the gene panel, single agent at low dose” value is recorded as “ineffective as single agents”. For the same compound, in assay [4] (MDA-MB-231 cells, 15 mM NIA or 300 μM SPT for 21 hours), the “re-expression of epigenetically silenced, hypermethylated TSGs incl. CRBP1” value is reported as “could cause the re-expression”.
